# The supplement of paper PMC10307832
# Tests used:
# Test in all cases: relative viability (nuclei count vs DMSO), 5 days (fraction); higher = more cells survive
# UMC-11 = tested on: UMC-11
# How it was run: (§1)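 Each reported value is a median over duplicate plates. It expresses relative viability: treated-well nuclei count divided by vehicle-well nuclei count. Lung cancer cell lines in 1536-well plates were dosed by pin tool a day after seeding, alone with one drug or with a fixed anchor-drug dose plus five library-drug doses (not always all listed) in √10 steps, and nuclei were counted after 5 days.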
# COR-L23 = tested on: COR-L23
# How it was run: as §1
# SW 900 = tested on: SW 900
# How it was run: as §1
# NCI-H1563 = tested on: NCI-H1563
# How it was run: as §1
# HCC-15 = tested on: HCC-15
# How it was run: as §1
# EPLC-272H = tested on: EPLC-272H
# How it was run: as §1
# 201T = tested on: 201T
# How it was run: as §1
# NCI-H1650 = tested on: NCI-H1650
# How it was run: as §1
# LOU-NH91 = tested on: LOU-NH91
# How it was run: as §1
# NCI-H647 = tested on: NCI-H647
# How it was run: as §1
# PC-14 = tested on: PC-14
# How it was run: as §1
# H3255 = tested on: H3255
# How it was run: as §1
# NCI-H2170 = tested on: NCI-H2170
# How it was run: as §1
# NCI-H3122 = tested on: NCI-H3122
# How it was run: as §1
# NCI-H322M = tested on: NCI-H322M
# How it was run: as §1
# NCI-H520 = tested on: NCI-H520
# How it was run: as §1
# NCI-H1734 = tested on: NCI-H1734
# How it was run: as §1
# NCI-H2405 = tested on: NCI-H2405
# How it was run: as §1
# NCI-H441 = tested on: NCI-H441
# How it was run: as §1
# NCI-H2347 = tested on: NCI-H2347
# How it was run: as §1
# NCI-H1793 = tested on: NCI-H1793
# How it was run: as §1
# NCI-H2023 = tested on: NCI-H2023
# How it was run: as §1
smiles,measurement,setting,value
CC(=O)O[C@@]12CO[C@@H]1C[C@H](O)[C@@]1(C)C(=O)[C@H](O)C3=C(C)[C@@H](OC(=O)[C@H](O)[C@@H](NC(=O)OC(C)(C)C)c4ccccc4)C[C@@](O)([C@@H](OC(=O)c4ccccc4)[C@H]21)C3(C)C [Docetaxel] + COc1cc2c(Oc3ccc(NC(=O)C4(C(=O)Nc5ccc(F)cc5)CC4)cc3F)ccnc2cc1OCCCN1CCOCC1 [Foretinib] (partner 0.25 µM),relative viability,UMC-11; first compound 0.0002 µM,0.934
same,relative viability,UMC-11; first compound 0.000632 µM,0.943
same,relative viability,UMC-11; first compound 0.002 µM,0.307
same,relative viability,UMC-11; first compound 0.006325 µM,0.245
same,relative viability,UMC-11; first compound 0.02 µM,0.186
same,relative viability,COR-L23; first compound 0.0002 µM,0.891
same,relative viability,COR-L23; first compound 0.000632 µM,0.896
same,relative viability,COR-L23; first compound 0.002 µM,0.561
same,relative viability,COR-L23; first compound 0.006325 µM,0.173
same,relative viability,COR-L23; first compound 0.02 µM,0.116
same,relative viability,SW 900; first compound 0.0002 µM,0.816
same,relative viability,SW 900; first compound 0.000632 µM,0.407
same,relative viability,SW 900; first compound 0.002 µM,0.249
same,relative viability,SW 900; first compound 0.006325 µM,0.247
same,relative viability,SW 900; first compound 0.02 µM,0.175
same,relative viability,NCI-H1563; first compound 0.0002 µM,0.988
same,relative viability,NCI-H1563; first compound 0.000632 µM,0.862
same,relative viability,NCI-H1563; first compound 0.002 µM,0.966
same,relative viability,NCI-H1563; first compound 0.006325 µM,0.922
same,relative viability,NCI-H1563; first compound 0.02 µM,0.628
same,relative viability,HCC-15; first compound 0.0002 µM,0.906
same,relative viability,HCC-15; first compound 0.000632 µM,0.472
same,relative viability,HCC-15; first compound 0.002 µM,0.233
same,relative viability,HCC-15; first compound 0.006325 µM,0.27
same,relative viability,HCC-15; first compound 0.02 µM,0.162
same,relative viability,EPLC-272H; first compound 0.0002 µM,0.7
same,relative viability,EPLC-272H; first compound 0.000632 µM,0.278
same,relative viability,EPLC-272H; first compound 0.002 µM,0.249
same,relative viability,EPLC-272H; first compound 0.006325 µM,0.0711
same,relative viability,EPLC-272H; first compound 0.02 µM,0.0667
same,relative viability,201T; first compound 0.0002 µM,1.15
same,relative viability,201T; first compound 0.000632 µM,0.712
same,relative viability,201T; first compound 0.002 µM,0.473
same,relative viability,201T; first compound 0.006325 µM,0.29
same,relative viability,201T; first compound 0.02 µM,0.213
same,relative viability,NCI-H1650; first compound 0.0002 µM,1.07
same,relative viability,NCI-H1650; first compound 0.000632 µM,0.598
same,relative viability,NCI-H1650; first compound 0.006325 µM,0.213
same,relative viability,NCI-H1650; first compound 0.02 µM,0.204
same,relative viability,LOU-NH91; first compound 0.0002 µM,0.936
same,relative viability,LOU-NH91; first compound 0.000632 µM,0.864
same,relative viability,LOU-NH91; first compound 0.002 µM,0.564
same,relative viability,LOU-NH91; first compound 0.006325 µM,0.334
same,relative viability,LOU-NH91; first compound 0.02 µM,0.284
same,relative viability,NCI-H647; first compound 0.0002 µM,1.25
same,relative viability,NCI-H647; first compound 0.000632 µM,1.06
same,relative viability,NCI-H647; first compound 0.002 µM,0.179
same,relative viability,NCI-H647; first compound 0.006325 µM,0.182
same,relative viability,NCI-H647; first compound 0.02 µM,0.111
same,relative viability,PC-14; first compound 0.0002 µM,0.886
same,relative viability,PC-14; first compound 0.000632 µM,1.03
same,relative viability,PC-14; first compound 0.002 µM,0.576
same,relative viability,PC-14; first compound 0.006325 µM,0.117
same,relative viability,PC-14; first compound 0.02 µM,0.0977
same,relative viability,H3255; first compound 0.0002 µM,0.889
same,relative viability,H3255; first compound 0.000632 µM,0.909
same,relative viability,H3255; first compound 0.002 µM,0.66
same,relative viability,H3255; first compound 0.006325 µM,0.335
same,relative viability,H3255; first compound 0.02 µM,0.266
same,relative viability,NCI-H2170; first compound 0.0002 µM,0.995
same,relative viability,NCI-H2170; first compound 0.000632 µM,0.962
same,relative viability,NCI-H2170; first compound 0.002 µM,0.754
same,relative viability,NCI-H2170; first compound 0.006325 µM,0.232
same,relative viability,NCI-H2170; first compound 0.02 µM,0.203
same,relative viability,NCI-H3122; first compound 0.0002 µM,0.993
same,relative viability,NCI-H3122; first compound 0.000632 µM,0.901
same,relative viability,NCI-H3122; first compound 0.002 µM,0.761
same,relative viability,NCI-H3122; first compound 0.006325 µM,0.16
same,relative viability,NCI-H3122; first compound 0.02 µM,0.106
same,relative viability,NCI-H322M; first compound 0.0002 µM,0.928
same,relative viability,NCI-H322M; first compound 0.000632 µM,0.949
same,relative viability,NCI-H322M; first compound 0.002 µM,0.956
same,relative viability,NCI-H322M; first compound 0.006325 µM,0.702
same,relative viability,NCI-H322M; first compound 0.02 µM,0.463
same,relative viability,NCI-H520; first compound 0.0002 µM,0.708
same,relative viability,NCI-H520; first compound 0.000632 µM,0.808
same,relative viability,NCI-H520; first compound 0.002 µM,0.341
same,relative viability,NCI-H520; first compound 0.006325 µM,0.218
same,relative viability,NCI-H520; first compound 0.02 µM,0.173
same,relative viability,NCI-H1734; first compound 0.0002 µM,0.776
same,relative viability,NCI-H1734; first compound 0.000632 µM,0.743
same,relative viability,NCI-H1734; first compound 0.002 µM,0.404
same,relative viability,NCI-H1734; first compound 0.006325 µM,0.336
same,relative viability,NCI-H1734; first compound 0.02 µM,0.227
same,relative viability,NCI-H2405; first compound 0.0002 µM,1.05
same,relative viability,NCI-H2405; first compound 0.000632 µM,1
same,relative viability,NCI-H2405; first compound 0.002 µM,0.6
same,relative viability,NCI-H2405; first compound 0.006325 µM,0.402
same,relative viability,NCI-H2405; first compound 0.02 µM,0.306
same,relative viability,NCI-H441; first compound 0.0002 µM,1.12
same,relative viability,NCI-H441; first compound 0.000632 µM,0.725
same,relative viability,NCI-H441; first compound 0.002 µM,0.538
same,relative viability,NCI-H441; first compound 0.006325 µM,0.87
same,relative viability,NCI-H2347; first compound 0.0002 µM,0.806
same,relative viability,NCI-H2347; first compound 0.000632 µM,0.815
same,relative viability,NCI-H2347; first compound 0.002 µM,0.541
same,relative viability,NCI-H2347; first compound 0.006325 µM,0.31
same,relative viability,NCI-H2347; first compound 0.02 µM,0.368
same,relative viability,NCI-H1793; first compound 0.0002 µM,0.592
same,relative viability,NCI-H1793; first compound 0.000632 µM,0.493
same,relative viability,NCI-H1793; first compound 0.002 µM,0.391
same,relative viability,NCI-H1793; first compound 0.006325 µM,0.204
same,relative viability,NCI-H1793; first compound 0.02 µM,0.186
same,relative viability,NCI-H2023; first compound 0.0002 µM,0.735
same,relative viability,NCI-H2023; first compound 0.000632 µM,0.868
same,relative viability,NCI-H2023; first compound 0.002 µM,0.111
same,relative viability,NCI-H2023; first compound 0.006325 µM,0.102
same,relative viability,NCI-H2023; first compound 0.02 µM,0.0789
